Patent US11136311B2, “Heteroaromatic derivatives as NIK inhibitors” (Janssen Pharmaceutica NV, priority 2016, dated 2021)
Read-outs that look alike come from different tables or passages of the source.

Legend:
[1] = target: recombinant human NF-kappaB-inducing kinase (NIK/MAP3K14) (Homo sapiens (Human), UniProt Q99558); test: Inhibition of auto-phosphorylation of recombinant human NIK/MAP3K14 activity (AlphaScreen); assay type: biochemical; conditions: averaged values over all measurements on all batches
Sequence of recombinant human NF-kappaB-inducing kinase (NIK/MAP3K14) (Q99558 whole entry): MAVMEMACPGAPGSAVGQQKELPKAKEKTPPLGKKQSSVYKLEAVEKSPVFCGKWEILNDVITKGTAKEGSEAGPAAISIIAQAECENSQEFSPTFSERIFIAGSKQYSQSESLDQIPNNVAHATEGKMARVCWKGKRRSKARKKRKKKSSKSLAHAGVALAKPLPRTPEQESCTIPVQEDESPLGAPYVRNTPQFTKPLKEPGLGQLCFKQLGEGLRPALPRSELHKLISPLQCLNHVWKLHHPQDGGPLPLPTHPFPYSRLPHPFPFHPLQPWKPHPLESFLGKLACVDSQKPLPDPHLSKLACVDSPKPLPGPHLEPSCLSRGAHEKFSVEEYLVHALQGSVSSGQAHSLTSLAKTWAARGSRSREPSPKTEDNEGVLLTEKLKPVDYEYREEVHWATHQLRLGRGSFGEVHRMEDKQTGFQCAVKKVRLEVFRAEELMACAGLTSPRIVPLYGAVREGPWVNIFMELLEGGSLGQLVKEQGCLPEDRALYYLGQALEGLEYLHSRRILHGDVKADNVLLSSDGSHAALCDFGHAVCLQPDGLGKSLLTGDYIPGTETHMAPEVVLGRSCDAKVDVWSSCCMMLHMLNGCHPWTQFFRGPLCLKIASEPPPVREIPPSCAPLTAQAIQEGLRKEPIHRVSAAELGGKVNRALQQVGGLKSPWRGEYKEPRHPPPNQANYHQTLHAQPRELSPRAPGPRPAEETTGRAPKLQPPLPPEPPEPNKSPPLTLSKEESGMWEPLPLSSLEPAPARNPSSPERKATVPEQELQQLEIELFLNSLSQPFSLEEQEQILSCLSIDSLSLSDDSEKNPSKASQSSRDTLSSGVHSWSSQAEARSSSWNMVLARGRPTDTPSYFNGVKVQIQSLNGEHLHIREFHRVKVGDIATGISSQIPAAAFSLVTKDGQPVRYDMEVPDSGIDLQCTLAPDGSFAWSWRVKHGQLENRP
Procedure: Inhibition of auto-phosphorylation of recombinant human NF-kappaB-inducing kinase (NIK/MAP3K14) activity (AlphaScreen®)
NIK/MAP3K14 auto-phosphorylation activity was measured using the AlphaScreen® (αscreen) format (Perkin Elmer). All compounds tested were dissolved in dimethyl sulfoxide (DMSO) and further dilutions were made in assay buffer. Final DMSO concentration was 1% (v/v) in assays. Assay buffer was 50 mM Tris pH 7.5 containing 1 mM EGTA (ethylene glycol tetraacetic acid), 1 mM DTT (dithiothreitol), 0.1 mM Na3VO4, 5 mM MgCl2, 0.01% Tween® 20. Assays were carried out in 384 well Alphaplates (Perkin Elmer). Incubations consisted of compound, 25 microM Adenosine-5′-triphosphate (ATP), and 0.2 nM NIK/MAP3K14. Incubations were initiated by addition of GST-tagged NIK/MAP3K14 enzyme, carried out for 1 h at 25° C. and terminated by addition of stop buffer containing anti-phospho-IKK Ser176/180 antibody. Protein A Acceptor and Glutathione-Donor beads were added before reading using an EnVision® Multilabel Plate Reader (Perkin Elmer). Signal obtained in the wells containing blank samples was subtracted from all other wells and IC50's were determined by fitting a sigmoidal curve to % inhibition of control versus Log10 compound concentration.

[2] = system: JJN-3 cells; test: Antiproliferative activity on JJN-3 (NIK translocated) multiple myeloma cells (CellTiter-Glo); assay type: cell-based, human; conditions: JJN-3 (NIK translocated) cells, 96 hr, averaged values, read-out: JJN-3 Proliferation inhibition (IC50 (nM))
Procedure: (§1) Determination of antiproliferative activity on JJN-3 (NIK translocated) and KMS12-BM (NIK WT) multiple myeloma cells
(§2) All compounds tested were dissolved in DMSO and further dilutions were made in culture medium. Final DMSO concentration was 0.3% (v/v) in cell proliferation assays. Viability was assessed using CellTiter-Glo cell viability assay kit (Promega). The human JJN-3 and KMS12-BM cells (DSMZ) were cultured in RPMI 1640 medium supplemented with 2 mM L-glutamine, and 10% fetal calf serum (PAA). Cells were routinely kept as suspension cells at 37° C. in a humidified 5% CO2 atmosphere. Cells were passaged at a seeding density of 0.2×10^6/ml twice a week. Cells were seeded in black tissue culture treated 96-well plates (Perkin Elmer). Densities used for plating ranged from 15000 (JJN3) to 20000 (KMS12BM) cells per well in a total volume of 135 μl medium. Drugs and/or solvents were added (15 μl) to a final volume of 150 μl. Following 96 hr of treatment, plates were removed from the incubator and allowed to equilibrate to room temperature for approx 10 min. 75 μl CellTiter-Glo reagent was added to each well that was then covered (Perkin Elmer Topseal) and shaken on plate shaker for 10 min. Luminescence was measured on a HTS Topcount (Perkin Elmer). Within an experiment, the results for each treatment were the mean of 2 replicate wells. For initial screening purposes, compounds were tested using a 9 point dilution curve (serial 1:3 dilutions). For each experiment, controls (containing no drug) and a blank incubation (containing cells read at the time of compound addition) were run in parallel. The blank value was subtracted from all control and sample values. For each sample, the mean value for cell growth (in relative light units) was expressed as a percentage of the mean value for cell growth of the control.

[3] = system: KMS12-BM cells; test: Antiproliferative activity on KMS12-BM (NIK WT) multiple myeloma cells (CellTiter-Glo); assay type: cell-based, human; conditions: KMS12-BM (NIK WT) cells, 96 hr, averaged values, read-out: KMS-12 Proliferation inhibition (IC50 (nM))
Procedure: as §1, §2

Structure (SMILES)	IC50 [1] [nM]	IC50 ([2]; Homo sapiens, JJN-3, 96 h) [nM]	IC50 ([3]; Homo sapiens, KMS-12-BM, 96 h) [nM]	IC50 [3] [nM]	IC50 [2] [nM]
COCCn1ccc(Nc2nccc(-c3cc(C#N)c4c(c3)C(C)(CO)CN4)n2)n1 (centres unmarked) [Compound 16]	2.8	525	7080		
CCOCCn1nc(C)cc1Nc1nccc(-c2cc(C#N)c3c(c2)[C@@](C)(CO)CN3)n1 [Compound 44]	4.5	324	8710		
Cn1nc(C2(C)COC2)cc1Nc1nccc(-c2cc(C#N)c3c(c2)C(C)(CO)CN3)n1 (centres unmarked) [Compound 5]	5.4	708	> 10000		
Cc1cc(Nc2nccc(-c3cc(C#N)c4c(c3)[C@@](C)(CO)CN4)n2)n(CC(=O)N(C)C(C)C)n1 [Compound 79]	8.3	2240	> 10000		
COCCCn1nccc1Nc1nccc(-c2cc(C#N)c3c(c2)[C@](C)(CO)CN3)n1 [Compound 47]	44	1550	> 10000		
Cc1cc(Nc2nccc(-c3cc(C#N)c4c(c3)[C@@](C)(CO)CN4)n2)n(CC2CCOCC2)n1 [Compound 61]	4.4	162	355		
Cn1nc(Nc2nccc(-c3cc(C#N)c4c(c3)C(C)(CO)CN4)n2)cc1C(=O)NC1CCOCC1 (centres unmarked) [Compound 50]	3.8	316	> 10000		
Cc1nn(CC2CCOCC2)cc1Nc1nccc(-c2cc(C#N)c3c(c2)[C@@](C)(CO)CN3)n1 [Compound 75]	13	2090	~6030		
COCCCn1ccc(Nc2nccc(-c3cc(C#N)c4c(c3)C(C)(CO)CN4)n2)n1 (centres unmarked) [Compound 23]	4.9	295	3890		
Cc1nnc(Nc2nccc(-c3cc(C#N)c4c(c3)C(C)(CO)CN4)n2)o1 (centres unmarked) [Compound 142]	42	> 10000	~9770		
COCCn1nc(C)cc1Nc1nccc(-c2cc(C#N)c3c(c2)C(C)(CO)CN3)n1 (centres unmarked) [Compound 14]	7.1	234	~7240		
Cc1cc(Nc2nccc(-c3cc(C#N)c4c(c3)[C@@](C)(CO)CN4)n2)n(CC(=O)N2CCCCC2)n1 [Compound 179]	6.2	832	~10000		
COC(C)(C)CCn1nc(Nc2nccc(-c3cc(C#N)c4c(c3)[C@@](C)(CO)CN4)n2)cc1C [Compound 58]	1.5	69	468		
Cn1ccc(Nc2nccc(-c3cc(C#N)c4c(c3)C(C)(CO)CN4)n2)n1 (centres unmarked) [Compound 1]	4	250	2430		
Cn1nc(C2CCCCC2)cc1Nc1nccc(-c2cc(C#N)c3c(c2)C(C)(CO)CN3)n1 (centres unmarked) [Compound 6]	7.6	347	> 10000		
Cn1nc(Nc2nccc(-c3cc(C#N)c4c(c3)C(C)(CO)CN4)n2)cc1C1(C)COC1 (centres unmarked) [Compound 26]	10	457	~2950		
Cn1nc(Nc2nccc(-c3cc(C#N)c4c(c3)[C@@](C)(CO)CN4)n2)cc1CN1CCOCC1 [Compound 39]	32	1440	> 10000		

Structure (SMILES)	IC50 [1] [nM]	IC50 ([2]; Homo sapiens, JJN-3, 96 h) [nM]	IC50 ([3]; Homo sapiens, KMS-12-BM, 96 h) [nM]	IC50 [3] [nM]	IC50 [2] [nM]
CC(C)n1ccc(Nc2nccc(-c3cc(C#N)c4c(c3)C(C)(CO)CN4)n2)n1 (centres unmarked) [Compound 20]	3.4	229	2510		
CNC(=O)c1cc(Nc2nccc(-c3cc(C#N)c4c(c3)[C@@](C)(CO)CN4)n2)n(C)n1 [Compound 56]	3.1	~363	~1410		
Cc1cc(Nc2nccc(-c3cc(C#N)c4c(c3)[C@@](C)(CO)CN4)n2)n(CC2CCCO2)n1 (single isomer, unassigned) [Compound 51]	4.1	~59		~1900	
COC(C)Cn1nc(C)cc1Nc1nccc(-c2cc(C#N)c3c(c2)[C@@](C)(CO)CN3)n1 (single isomer, unassigned) [Compound 78]	9.8			9120	457
C[C@]1(CO)CNc2c(C#N)cc(-c3ccnc(Nc4ccn(CC5CC5)n4)n3)cc21 [Compound 40]	2.2	295	562		
Cc1cc(Nc2nccc(-c3cc(C#N)c4c(c3)[C@@](C)(CO)CN4)n2)n(CC2CCCCO2)n1 (single isomer, unassigned) [Compound 69]	5.8			> 10000	78
CN1CCC(n2cc(Nc3nccc(-c4cc(C#N)c5c(c4)C(C)(CO)CN5)n3)cn2)CC1 (centres unmarked) [Compound 12]	3.6	~45	~214		
Cn1nc(C(=O)N2CCC(F)(F)CC2)cc1Nc1nccc(-c2cc(C#N)c3c(c2)C(C)(CO)CN3)n1 (centres unmarked) [Compound 28]	~17	2570	> 10000		
CC(C)(c1cc(Nc2nccc(-c3cc(C#N)c4c(c3)[C@@](C)(CO)CN4)n2)[nH]n1)S(C)(=O)=O [Compound 65]	10	~1410	> 10000		
Cc1nc(Nc2nccc(-c3cc(C#N)c4c(c3)[C@@](C)(CO)CN4)n2)sc1C [Compound 148]	0.8	93	282		
Cc1cc(Nc2nccc(-c3cc(C#N)c4c(c3)[C@@](C)(CO)CN4)n2)n(C2CCOCC2)n1 [Compound 63]	9.8	692	6310		
Cn1cc(Cl)c(Nc2nccc(-c3cc(C#N)c4c(c3)C(C)(CO)CN4)n2)n1 (centres unmarked) [Compound 32]	27	7760	> 10000		
CN(CCO)C[C@@]1(C)CNc2c(C#N)cc(-c3ccnc(Nc4ccn(C)n4)n3)cc21 [Compound 174]	35			3160	1550
Cc1cc(Nc2nccc(-c3cc(C#N)c4c(c3)[C@@](C)(CO)CN4)n2)n(C2CCN(C)CC2)n1 [Compound 62]	23	204	269		
CC(C)(C)c1cc(Nc2nccc(-c3cc(C#N)c4c(c3)C(C)(CO)CN4)n2)n(CCO)n1 (centres unmarked) [Compound 10]	13	724	> 10000		
Cc1cc(Nc2nccc(-c3cc(C#N)c4c(c3)C(C)(CO)CN4)n2)n(CCN(C)C)n1 (centres unmarked) [Compound 11]		576	3700		
